Where “and” joins values, the source holds several entries; their conditions need not be identical. Equal values may be shown once.
How the values were obtained:
Format in all cases: in vivo, human
[1] = test system: person having subjective symptoms of eyestrain or working for VDT operation; test: Example 1: double-blind accommodability test with an accommodometer, test food vs control food for 4 weeks; conditions: intake of astaxanthin for 4 consecutive weeks; difference not recognized in control group
Source text: People satisfying the following selection standards were used as subjects.
(1) A person having subjective symptoms of eyestrain or working for VDT operation, (2) 1.0 or more of both eyes in vision after correction. (3) 35-59 years old, (4) persons who do notusually take any medicines or health foods, (5) a person who can keep in compliance with all the test-related requirements and take the medical examinations stipulated by the test method.
Persons who have retinal disorders or cataracts were excluded from the subjects.
A test food with 5 mg /capsule of astaxanthin and a control food with 0 mg /capsule of astaxanthin were prepared. The test was conducted in a double-blind method.
After completion of the accommodability test for the subjects using an accommodometer by which the change in the refraction value (accommodation reaction) during moving object can be measured continuously and objectively, and accommodation abnormalities including VDT syndrome can be detected clearly.
A person in charge of the test prepared a subjects' name-list stratified by sex and the test results and handed it to a controller. The controller prepared an allocation table separating the subjects into test food group and control food group based on the name list. In addition, the controller stuck each label with a subject's name on the test food or control food according to the allocation table. […]

[2] = test system: VDT workers; test: Example 2: systemic side effects during 4-week administration; conditions: B group, 5 mg/day orally for 4 weeks
Procedure: (§1) As a control, 13 persons who have not been administered astaxanthin and have not worked in a VDT operation were indicated as the A group. 26 VDT workers were divided into two groups at random. The B group (13 persons) was orally administered 5 mg of astaxanthin/day for 4 consecutive weeks while the C group (13 persons) was orally administered a placebo for 4 consecutive weeks. No significant difference was recognized in age among the three groups.
(§2) An astaxanthin capsule (5 mg/capsule) was orally administrated to each of the B group subjects one time a day 30 minutes before supper.

[3] = test system: VDT workers; test: Example 2: critical flicker fusion (C.F.F. tester)
Procedure: as §1
(§3) A double-blind test was conducted for the B and C groups.
(§4) Also, 26 workers were selected who had been engaged in a VDT operation for 4 hours per day, for 5 days (Monday to Friday every week) per week and for a year or more. Their eyes were better than twenty-twenty (20/20). All of them wore eyeglasses for accommodation during the VDT operation.
(§5) A double-blind test was conducted with respect to the VDT workers. The VDT workers were divided into an astaxanthin-administration group (n=13, B group) and placebo-administration group (n=13, C group). There was no difference in age among the three groups (Table 2 shown below).
as §2
(§6) All of these measurement items were conducted with each right eye of the subjects at a.m. 9:00-12:00 on a Saturday.
The critical flicker fusion was determined by decreasing the frequency of the signals at a constant speed using a C.F.F. tester (a product of Yagami Co., Ltd.). There was used the average value of the three times value measured by the individual eyes of the subjects.
(§7) The data on before and after administration were analyzed statistically using a paired t-test. Also, the data for the A and B groups and those for the A and C groups were measured in an unpaired test. The probability value is below 0.05 that is considered to be significant.

[4] = test system: VDT workers; test: Example 2: eye-accommodability (near point minus far point, D'Acomo apparatus), double-blind vs placebo; conditions: mean ± SD, dioptres
Procedure: as §1, §3
Also, 26 workers were selected who had been engaged in a VDT operation for 4 hours per day, for 5 days (Monday to Friday every week) per week and for a year or more. […]
The eye-accommodability was evaluated by measurement of the near and far points.
The near point was measured with a D'Acomo apparatus (binocular opening constant point refraction near point ruler, a product of World Optical Corporation) according to the Uozato et al' method (Uozato H, Nagakawa A, Hirai H, Saishin M: A new near-point ruler using constant dioptric stimulus. Folia Ophthalmol Jpn 1988;39:1247-1248).
The far point was measured in the best-corrected refraction for each of the subjects.
The eye-accommodability (dioptres) was calculated by subtracting the far point (dioptres) from the near point (dioptres).
The data on before and after administration were analyzed statistically using a paired t-test. […]

[5] = test system: VDT workers; test: Example 2: pattern visual evoked potentials (P100 amplitude and latency)
Procedure: as §1, §3, §4, §5, §2, §6
The pattern visual evoked potential was recorded according to the method established by the International Society for Clinical Electrophysiology of Vision to measure one positive peak strength (P100) and the latency (the difference […] between N75 peak and P100 peak).
as §7

[6] = test system: VDT workers; test: Example 2: eyesight at 5 m and 35 cm using a Landolt ring; conditions: B group, 5 mg/day orally for 4 weeks
Procedure: as §4, §5, §2
The eyesight was measured at each distance of 5 m and 35 cm using a Landolt ring.

[7] = B group baseline, n = 13 eye, mean ± SD
[8] = B group, 5 mg/day orally for 4 weeks, n = 13 eye, mean ± SD
[9] = B group, 5 mg/day orally for 4 weeks, vs before administration

For CC1=C(/C=C/C(C)=C/C=C/C(C)=C/C=C/C=C(C)/C=C/C=C(C)/C=C/C2=C(C)C(=O)C(O)CC2(C)C)C(C)(C)CC(O)C1=O (stereo not drawn) [astaxanthin, 3,3′-dihydroxy-β,β-carotene-4,4′-dione], which “Change of eye-accommodability, before vs after intake” value [1] is on record?
Its value is “increased in the test food group by a statistically significant difference”.

And the Systemic side effects [2]?
The Systemic side effects was “no systemic side effects were recognized”.

What about the “CFF (Hz), before administration of astaxanthin” value [3, 7] of the same compound?
The value was 39.9 ± 5.3 Hz.

What about the “CFF (Hz), after administration of astaxanthin” value [3, 8] of the same compound?
Its value is 38.4 ± 4.8 Hz.

And the “Change of critical flicker fusion after administration” value [3, 9]?
The value was “did not (appreciably) change”.

And the “Accommodability (D), before administration of astaxanthin” value ([4]; B group baseline, n = 13 eye (right eye), p<0.05 lower than non-VDT A group (3.7 ± 1.5))?
The value was 2.3 ± 1.4 D.

And the “Accommodability (D), after administration of astaxanthin” value ([4]; B group, 5 mg astaxanthin/day orally for 4 consecutive weeks, n = 13 eye, p<0.01 vs before administration)?
The value was 2.8±1.6 D.

What about the “PVEP-P100 Amplitude (μV), before administration of astaxanthin” value [5, 7] of the same compound?
Its value is 5.8±1.7 μV.

What about the “PVEP-P100 Latency (msec), before administration of astaxanthin” value [5, 7] of the same compound?
The value was 102.5 ± 6.9 ms.

What about the “PVEP-P100 Amplitude (μV), after administration of astaxanthin” value [5, 8] of the same compound?
The value was 5.6±1.6 μV.

And the “PVEP-P100 Latency (msec), after administration of astaxanthin” value [5, 8]?
The value was 104 ± 7.4 ms and 104.8 ± 7.4 ms.

And the “Change of amplitude of P100 in pattern visual evoked potentials after administration” value [5, 9]?
Its value is “did not appreciably change”.

What about the “Change of latency of P100 in pattern visual evoked potentials after administration” value [5, 9] of the same compound?
The value was “did not appreciably change”.

What about the “Change of eyesight at distances of 5 m and 35 cm, before vs after administration” value [6] of the same compound?
Its value is “did not appreciably change”.

From patent US20050171214A1, “Medicament for improving the failure of accommodation” (Fuji Chemical Industry Co., Ltd., priority 2001, published 2005)
